Assay results published in US8338597B2, “Pyridones useful as inhibitors of kinases” (Vertex Pharmaceuticals Incorporated, priority 2004, dated 2012).
Several values for one entry are separate records, joined by “and”; a condition that tells them apart may be missing. Identical values can stand only once.

Tests used:
Format in all cases: biochemical
Btk = Btk (Homo sapiens, UniProt Q06187); assay: BTK inhibition assay, radioactive-phosphate incorporation; conditions: 50 μM [γ-33P]ATP, 25 nM Btk, 25° C.
Btk, sequence (Q06187 whole entry, species assumed): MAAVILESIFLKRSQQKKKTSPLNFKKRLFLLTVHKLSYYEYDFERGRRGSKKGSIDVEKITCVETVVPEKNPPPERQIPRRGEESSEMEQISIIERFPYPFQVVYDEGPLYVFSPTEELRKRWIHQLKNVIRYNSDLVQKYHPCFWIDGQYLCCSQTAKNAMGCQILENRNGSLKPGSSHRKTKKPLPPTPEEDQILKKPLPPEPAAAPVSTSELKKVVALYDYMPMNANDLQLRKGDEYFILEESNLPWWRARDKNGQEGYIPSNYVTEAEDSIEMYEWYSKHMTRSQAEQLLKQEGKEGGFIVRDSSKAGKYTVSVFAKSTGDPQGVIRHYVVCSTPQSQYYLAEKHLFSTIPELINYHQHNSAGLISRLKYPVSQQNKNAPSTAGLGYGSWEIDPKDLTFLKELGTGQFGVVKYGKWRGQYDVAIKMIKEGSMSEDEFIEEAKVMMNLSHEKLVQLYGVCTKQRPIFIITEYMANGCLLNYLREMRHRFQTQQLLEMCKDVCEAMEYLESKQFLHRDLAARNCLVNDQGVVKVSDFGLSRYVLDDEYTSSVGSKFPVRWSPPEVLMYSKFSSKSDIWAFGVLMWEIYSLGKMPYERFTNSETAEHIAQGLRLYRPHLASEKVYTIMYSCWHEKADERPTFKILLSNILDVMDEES
Experimental: Compounds were screened for their ability to inhibit Btk using a radioactive-phosphate incorporation assay at Vertex Pharmaceuticals. Assays were carried out in a mixture of 20 mM MOPS (pH 7.0), 10 mM MgCl2, 0.1% BSA and 1 mM DTT. Final substrate concentrations in the assay were 50 μM [γ-33P]ATP (200mCi 33P ATP/mmol ATP, Amersham Pharmacia Biotech, Amersham, UK/Sigma Chemicals) and 2 μM peptide (SAM68 D332-443). Assays were carried out at 25° C. and in the presence of 25 nM Btk. An assay stock buffer solution was prepared containing all of the reagents listed above, with the exception of the peptide and the test compound of interest. 75 μL of the stock solution was placed in a 96 well plate followed by addition of 2 μL of DMSO stock containing serial dilutions of the test compound (typically starting from a final concentration of 15 μM) in duplicate (final DMSO concentration 2%). The plate was preincubated for 15 minutes at 25° C. and the reaction initiated by addition of 25 μL peptide (final concentration 2 μM). Background counts were determined by the addition of […] 0.2M phosphoric acid+0.01% TWEEN to control wells containing assay stock buffer and DMSO prior to initiation with peptide.
The reaction was stopped after 10 minutes by the addition of […] 0.2M phosphoric acid+0.01% TWEEN. A multiscreen phosphocellulose filter 96-well plate (Millipore, Cat no. MAPHN0B50) was pretreated with 100 μL 0.2M phosphoric acid+0.01% TWEEN 20 prior to the addition of […] of the stopped assay mixture. The plate was washed with 4×200 μL 0.2M phosphoric acid+0.01% TWEEN 20. After drying, 30 μL Optiphase ‘SuperMix’ liquid scintillation cocktail (Perkin Elmer) was added to the well prior to scintillation counting (1450 Microbeta Liquid Scintillation Counter, Wallac).
After removing mean background values for all of the data points, Ki(app) data were calculated from non-linear regression analysis using the Prism software package (GraphPad Prism version 3.0cx for Macintosh, GraphPad Software, San Diego Calif., USA).

Itk = molecular target: T1, Itk (Homo sapiens, UniProt Q08881); assay: ITK inhibition assay, radioactive-phosphate incorporation; conditions: [γ-33P]ATP, SAM68 peptide, 25° C.
T1 sequence (Q08881 1-620): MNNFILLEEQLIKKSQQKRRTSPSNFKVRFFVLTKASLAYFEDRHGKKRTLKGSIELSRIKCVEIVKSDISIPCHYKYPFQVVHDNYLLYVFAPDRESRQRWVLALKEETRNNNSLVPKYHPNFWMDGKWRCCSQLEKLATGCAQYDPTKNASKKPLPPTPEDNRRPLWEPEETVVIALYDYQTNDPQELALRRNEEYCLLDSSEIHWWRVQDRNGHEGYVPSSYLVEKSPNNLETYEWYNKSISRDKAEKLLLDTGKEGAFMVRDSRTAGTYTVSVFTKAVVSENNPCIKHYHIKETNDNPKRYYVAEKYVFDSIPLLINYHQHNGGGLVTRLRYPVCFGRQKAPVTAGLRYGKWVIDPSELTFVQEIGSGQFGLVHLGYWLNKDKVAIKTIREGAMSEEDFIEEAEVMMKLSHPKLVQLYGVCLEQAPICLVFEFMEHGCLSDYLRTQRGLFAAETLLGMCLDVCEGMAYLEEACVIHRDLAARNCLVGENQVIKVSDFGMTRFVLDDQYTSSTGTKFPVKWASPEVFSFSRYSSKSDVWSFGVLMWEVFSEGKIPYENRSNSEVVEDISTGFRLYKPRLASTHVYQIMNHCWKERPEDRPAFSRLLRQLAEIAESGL

Rlk = molecular target: T2, Rlk (Homo sapiens, UniProt P42681); assay: RLK inhibition assay, standard coupled enzyme assay; conditions: 100 μM ATP, 40 nM Rlk, 30° C.
T2 sequence (P42681 1-527): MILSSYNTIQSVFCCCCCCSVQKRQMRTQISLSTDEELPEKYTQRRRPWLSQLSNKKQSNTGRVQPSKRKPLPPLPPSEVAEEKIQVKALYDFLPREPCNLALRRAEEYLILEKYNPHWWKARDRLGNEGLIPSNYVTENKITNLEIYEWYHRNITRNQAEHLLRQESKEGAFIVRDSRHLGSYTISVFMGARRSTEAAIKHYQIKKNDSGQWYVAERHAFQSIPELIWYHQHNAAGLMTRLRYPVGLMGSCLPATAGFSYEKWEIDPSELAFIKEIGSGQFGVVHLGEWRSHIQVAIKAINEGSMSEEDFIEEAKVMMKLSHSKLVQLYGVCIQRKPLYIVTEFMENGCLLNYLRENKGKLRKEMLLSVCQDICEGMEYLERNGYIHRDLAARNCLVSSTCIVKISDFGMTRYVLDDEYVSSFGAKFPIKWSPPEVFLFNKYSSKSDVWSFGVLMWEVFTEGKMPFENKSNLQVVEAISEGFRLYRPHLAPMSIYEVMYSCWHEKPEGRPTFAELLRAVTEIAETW
Experimental: Compounds were screened for their ability to inhibit Rlk using a standard coupled enzyme assay (Fox et al., Protein Sci., (1998) 7, 2249). Assays were carried out in a mixture of 20 mM MOPS (pH 7.0), 10 mM MgCl2, 0.1% BSA and 1 mM DTT. Final substrate concentrations in the assay were 100 μM ATP (Sigma Chemicals) and 10 μM peptide (Poly Glu:Tyr 4:1). Assays were carried out at 30° C. and in the presence of 40 nM Rlk. Final concentrations of the components of the coupled enzyme system were 2.5 mM phosphoenolpyruvate, 300 μM NADH, 30 μg/ml pyruvate kinase and 10 μg/ml lactate dehydrogenase.
An assay stock buffer solution was prepared containing all of the reagents listed above, with the exception of ATP and the test compound of interest. 60 μl of the stock solution was placed in a 96 well plate followed by addition of […] of DMSO stock containing serial dilutions of the test compound (typically starting from a final concentration of 7.5 μM). The plate was preincubated for 10 minutes at 30° C. and the reaction initiated by addition of 5 μl of ATP. Initial reaction rates were determined with a Molecular Devices SpectraMax Plus plate reader over a 10 minute time course. IC50 and Ki data were calculated from non-linear regression analysis using the Prism software package (GraphPad Prism version 3.0cx for Macintosh, GraphPad Software, San Diego Calif., USA).

Ki (Btk) | Ki (Itk) [nM] | Ki (Rlk) [nM] | Compound
< 500 nM | < 100 | – | CNCCNc1cccc(-c2c[nH]c(=O)c(NC(=O)c3ccc(N4CCCCC4)cc3)c2)n1 [II-51]
< 500 nM | < 100 | – | CN(C)CCNc1nccc(-c2c[nH]c(=O)c(NC(=O)c3ccc(N4CCCCC4)cc3)c2)n1 [II-58]
> 500 nM and < 500 nM | 100 to 1000 | – | CN(C)CCN(C)c1nccc(-c2c[nH]c(=O)c(NC(=O)c3ccc(N4CCCCC4)cc3)c2)n1 [II-61]
< 500 nM | < 100 | – | CNCCNc1nccc(-c2c[nH]c(=O)c(NC(=O)c3ccc(N4CCCCC4)cc3)c2)n1 [II-63]
< 500 nM | < 100 | < 1000 | CNc1nccc(-c2c[nH]c(=O)c(NC(=O)c3ccc(N4CCNCC4)cc3)c2)n1 [II-77]
< 500 nM | < 100 | < 1000 | CNc1nccc(-c2c[nH]c(=O)c(NC(=O)c3ccc(N4CCN(C(C)C)CC4)cc3)c2)n1 [II-78]
< 500 nM | < 100 | < 1000 | CNc1nccc(-c2c[nH]c(=O)c(NC(=O)c3ccc(N4CCC[C@H]4CN4CCCC4)cc3)c2)n1 [II-80]
< 500 nM | < 100 | < 1000 | CC(C)(N)CNc1cccc(-c2c[nH]c(=O)c(NC(=O)c3ccc(N4CCCCC4)cc3)c2)n1 [II-112]
> 500 nM | – | > 1000 | CNc1cncc(-c2c[nH]c(=O)c(NC(=O)c3ccc(N4CCCCC4)cc3)c2)n1 [II-114]
> 500 nM | 100 to 1000 | > 1000 | CC(O)[C@@H](CO)Nc1cccc(-c2c[nH]c(=O)c(NC(=O)c3ccc(N4CCCCC4)cc3)c2)n1 (stereo partly shown) [II-149]
